# According to patent US20160089371A1, “Combination of Kinase Inhibitors and Uses Thereof” (INTELLIKINE, LLC, priority 2013, published 2016):
# Where “and” joins values, the source holds several entries; their conditions need not be identical. Equal entries are not always repeated.
# System: MDA-MB-361 xenografts
# Test: Antitumor activity and tumor regrowth, MDA-MB-361 xenografts (Example 42)
# Format: in vivo, Mus musculus
# Experimental: (room temperature), shielded from light. The test article Compound A was prepared in 5% NMP+95% PEG400 every 5 to 7 days and stored at approximately 25° C. (room temperature), shielded from light. The control article used in this study was 5% NMP+95% PEG400. Compounds were completely dissolved in NMP by sonication, followed by the addition of an appropriate volume of PEG400, and the final solution was vortexed and sonicated to ensure thorough mixing.
# Low-passage MDA-MB-361 cells were grown in Eagle's Minimal Essential Medium (EMEM) media supplemented with 20% fetal bovine serum (FBS) and 1× penicillin/streptomycin (Invitrogen, Carlsbad, Calif., USA) until approximately 80% confluency was reached. Before injection, the cells were detached with GIBCO® trypsin (Invitrogen), washed twice with phosphate-buffered saline (PBS), and resuspended in Roswell Park Memorial Institute (RPMI) media (Invitrogen) without supplements. Cells were resuspended to a final concentration of 5×10^7 cells/mL in RPMI media without supplements. […]
# Female 5 to 6-week old female (athymic nu/nu) nude mice were inoculated SC in the flank with 5.0×10^6 MDA-MB-361 cells. Tumor growth was monitored with vernier calipers. The MTV was calculated using the formula V=W^2×L÷2. […] Tumor growth and body weight were measured twice weekly. Percent TGI and body weight change were calculated on Day 29. […] The remaining mice continued on study until Day 65, and tumor size and body weight in these mice were measured every 9 to 11 days.
# Antitumor activity was determined by calculating the percent TGI using Equation 1: Percent TGI)=(MTV of the control group−MTV of a treated group)÷MTV of the control group×100
# Tumor growth delay was determined by calculating the time until MTV in a given treatment group reached 1000 mm^3 versus the time until MTV in the control group reached 1000 mm^3.
# The differences in trends of tumor growth over time between pairs of treatment groups were assessed using linear mixed-effects regression models. These models account for the fact that each animal was measured at multiple time points. […]
structure (smiles),measurement,setting,value
Nc1nc2cc(-c3ccc4ncc(C(=O)N5CCOCC5)n4c3)ccc2o1 [Compound A],%TGI (Day 29),"Compound B 0.3 mg/kg, Compound A 60 mg/kg, alone or combined, PO QD 30 days, Day 29",77.4%
same,MTV on Day 29,"Compound B 0.3 mg/kg, Compound A 60 mg/kg, alone or combined, PO QD, n = 8",165 mm^3 and 165 ± 105.8 mm^3
same,%TGI (Day 65),based on the control group (n = 4) on Day 65,69.5%
